Reference: ChEMBL document CHEMBL4024703, “Recent Progress in the Development of Transglutaminase 2 (TGase2) Inhibitors” (J Med Chem, 2017)

How the values were obtained:
[1] = Metabolic stability in Wistar rat blood plasma after 45 mins by HPLC analysis; format: ADME, cell-free; details: read-out: Stability
[2] = Metabolic stability in Wistar rat blood plasma after 15 mins by HPLC analysis; format: ADME, cell-free; details: read-out: Stability
Homo sapiens [3] = organism: Homo sapiens; assay: Selectivity ratio of IC50 for human TG1 to IC50 for human TG2
Homo sapiens [4] = organism: Homo sapiens; assay: Selectivity ratio of IC50 for human TG6 to IC50 for human TG2
Homo sapiens [5] = organism: Homo sapiens; assay: Selectivity ratio of IC50 for human F13a to IC50 for human TG2
Homo sapiens [6] = organism: Homo sapiens; assay: Selectivity ratio of IC50 for human TG3 to IC50 for human TG2
Mus musculus [7] = assay: Antihypertensive activity in C57BL/6 mouse angiotensin 2-induced hypertensive nephrosclerosis model assessed as reduction in collagen deposition in blood vessels at 25 mg/kg/day administered sc with angiotensin 2 for 14 days by Sirius red/collagen staining based assay; format: functional; details: C57BL/6, sc, 336 h
Mus musculus [8] = assay: Antihypertensive activity in C57BL/6 mouse angiotensin 2-induced hypertensive nephrosclerosis model assessed as reduction in collagen deposition in kidney at 25 mg/kg/day administered sc with angiotensin 2 for 14 days by Sirius red/collagen staining based assay; format: functional; details: C57BL/6, sc, 336 h
[9] = target: T1, Protein-glutamine gamma-glutamyltransferase (Homo sapiens, UniProt P21980); assay: Inhibition of recombinant human TG2 by fluorescence assay
T1 sequence (P21980 whole entry): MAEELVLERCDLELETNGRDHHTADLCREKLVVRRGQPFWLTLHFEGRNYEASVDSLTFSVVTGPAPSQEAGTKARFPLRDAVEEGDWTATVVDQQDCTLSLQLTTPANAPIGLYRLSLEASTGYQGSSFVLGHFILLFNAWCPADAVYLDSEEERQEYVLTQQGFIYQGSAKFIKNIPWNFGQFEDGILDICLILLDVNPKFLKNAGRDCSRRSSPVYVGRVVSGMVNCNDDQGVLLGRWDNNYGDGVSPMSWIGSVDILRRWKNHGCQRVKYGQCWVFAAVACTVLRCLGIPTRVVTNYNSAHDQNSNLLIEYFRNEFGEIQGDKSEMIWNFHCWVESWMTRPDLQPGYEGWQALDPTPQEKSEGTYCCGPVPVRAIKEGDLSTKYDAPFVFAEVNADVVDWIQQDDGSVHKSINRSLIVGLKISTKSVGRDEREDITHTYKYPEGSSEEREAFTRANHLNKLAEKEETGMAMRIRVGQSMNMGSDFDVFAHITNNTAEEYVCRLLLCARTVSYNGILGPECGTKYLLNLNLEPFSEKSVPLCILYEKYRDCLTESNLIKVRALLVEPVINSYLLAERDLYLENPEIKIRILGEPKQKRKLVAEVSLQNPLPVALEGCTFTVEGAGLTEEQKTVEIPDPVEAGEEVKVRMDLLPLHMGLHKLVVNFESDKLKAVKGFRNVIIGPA

C=CC(=O)NCCCC[C@H](NC(=O)Cc1ccccc1)C(=O)N1CCN(c2cccc(C)n2)CC1
remaining at 0.75 h [1]: 29%
remaining at 0.25 h [2]: 65%

CCC(CC)CNC(=O)Cn1cccc(NC(=O)[C@H](CC/C=C/C(=O)OC)NC(=O)c2cncn2C)c1=O
Ratio IC50 (Homo sapiens [3]): > 100
Ratio IC50 (Homo sapiens [4]): > 100
Ratio IC50 (Homo sapiens [5]): > 100
Ratio IC50 (Homo sapiens [6]): > 100

C=CC(=O)NCC(=O)N1CCN(S(=O)(=O)c2cccc3c(N(C)C)cccc23)CC1
inhibition in vivo at 25 mg/kg/day (Mus musculus [7]): 45%
inhibition in vivo at 25 mg/kg/day (Mus musculus [8]): 40%
IC50 [9]: 6 nM
